Assay results taken from patent US20220249586A1, “HEMP EXTRACT AND METHODS OF USE THEREOF” (ElleVet Sciences, priority 2019, published 2022).
Values joined by “and” are separate entries in the source; they are usually repeats but may differ in a detail not shown here. Equal values may be shown once.

What was measured:
[1] = Single-dose oral pharmacokinetics of CBD oil in beagles (serum CBD by LC-MS); assay type: in vivo; conditions: male, beagle, dog, median of 4 dogs, read-out: T½ elim (converted)
Protocol: An initial investigation into single-dose oral pharmacokinetics was performed with 4 beagles (3.5-7 years, male castrated, 10.7-11.9 kg). Each dog received a 2 mg/kg and an 8 mg/kg oral dosage of CBD oil, with a 2-week washout period between each experiment. The dogs were fed two hours after dosing. Physical examination was performed at 0, 4, 8 and 24 hours after dosing. Attitude, behavior, proprioception, and gait were subjectively evaluated at each time point during free running/walking and navigation around standard traffic cones (weaving). Five ml of blood was collected at time 0, 0.5, 1, 2, 4, 8, 12 and 24 hours after oil administration. Blood samples were obtained via jugular venipuncture and transferred to a coagulation tube for 20 minutes. […]
From the UHPLC-QQQ-MS data, peak areas were extracted for CBD detected in biological samples and normalized to the peak area of the internal standard CBD-d3, in each sample using Skyline as well as an in-house R Script (www.r-project.org). CBD concentrations were calculated to nanograms per mL of serum as determined by the line of regression of the standard curve (r2=0.9994, 0-1000 ng/mL). For this assay, the limits of detection (LOD) and limits of quantification (LOQ) represent the lower limits of detection and quantification for each compound in the matrix of this study. […]

[2] = Feline pharmacokinetics (cannabidiol in serum by LC-MS/MS); assay type: in vivo, cat; parameters: AUC 0 −> t: concentration or dose not given beside the values
Protocol: On the first day of dosing, blood was collected for a PK analysis from 6 of the 8 cats. The most cooperative cats were selected for the PK analysis. […] Samples were placed into a red top clotting tube with no serum separator. […] The harvested serum was placed in cyrovials stored at −70° C. Each tube was labeled with the cat id, date of collection and collection time point. Samples were shipped overnight on dry ice to the Proteomics & Metabolomics Facility at Colorado State University.
200 μL of cold (−20 C) 100% Acetonitrile (spiked with 60 ng/mL of d3-CBD) was added to each sample and vortexed at room temperature for 5 minutes. 200 μL of water was added and vortexed for an additional 5 minutes. 1 ml of 100% hexane was then added to each sample and vortexed for a final 5 minutes. […] The upper hexane layer was transferred to new-labeled glass vials (˜900 uL per sample), carefully avoiding the middle and lower layers.
An 8 point standard curve of CBD was generated in matrix background using a blank serum. Concentrations ranged from 0 ng/mL 1000 ng/mL (3.2× dilution series). 50 uL of each spiked serum sample was extracted as above.
LC-MS/MS was performed on a Waters Acquity M-Class UPLC coupled to a Waters Xevo TQ-S triple quadrupole mass spectrometer. […] Flow rate was 3.0 μL/min and injection volume was 2.0 μL. […]
Each target analyte was visually inspected for retention time and peak area integration. Peak areas were extracted for target compounds detected in biological samples and normalized to the peak area of the appropriate internal standard in each sample using in-house R Script (TQS-tools). CBD concentrations were calculated in nanograms per milliliter of extract (0.06 mL) and then back calculated to nanograms per mL of serum (0.05 mL of serum).
LOD are calculated based on the standard deviation of the response (Sy) of the 0 point calibration standard (i.e., 0 ng/mL CBD as an estimate on noise) and the slope of the calibration curve (S) at levels approximating the LOD according to the formula: LOD=^3*(Sy/S). […]

C=C(C)[C@@H]1CCC(C)=C[C@H]1c1c(O)cc(CCCCC)cc1O [Cannabidiol, cannabidiol]
half-life ([1]; 2 mg/kg single oral dose): 4.2 h
half-life ([1]; 8 mg/kg single oral dose): 4.2 h
AUC 0 −> t ([2]; individual cats, 0 time to last collection [24 hr]): 265.0 ng·h/mL and 54.2 ng·h/mL and 42.4 ng·h/mL and 212.2 ng·h/mL and 125.0 ng·h/mL and 134.2 ng·h/mL and 60.2 ng·h/mL
Cmax ([2]; serum, po, 2 mg/kg): 47.6 ng/mL
half-life ([2]; serum, po, 2 mg/kg, individual cats, oral 2/mg/kg cannabidiol in capsule form, read-out: T½ el (converted)): 1.2 h
